In patent US10758534B2 (Vertex Pharmaceuticals Incorporated, priority 2014, dated 2020) one finds EC30 data, which are given here for 20 compounds.

The structures appear in SMILES notation.

T1 sequence (P13569 with tags, fused parts or gaps DEL508-508): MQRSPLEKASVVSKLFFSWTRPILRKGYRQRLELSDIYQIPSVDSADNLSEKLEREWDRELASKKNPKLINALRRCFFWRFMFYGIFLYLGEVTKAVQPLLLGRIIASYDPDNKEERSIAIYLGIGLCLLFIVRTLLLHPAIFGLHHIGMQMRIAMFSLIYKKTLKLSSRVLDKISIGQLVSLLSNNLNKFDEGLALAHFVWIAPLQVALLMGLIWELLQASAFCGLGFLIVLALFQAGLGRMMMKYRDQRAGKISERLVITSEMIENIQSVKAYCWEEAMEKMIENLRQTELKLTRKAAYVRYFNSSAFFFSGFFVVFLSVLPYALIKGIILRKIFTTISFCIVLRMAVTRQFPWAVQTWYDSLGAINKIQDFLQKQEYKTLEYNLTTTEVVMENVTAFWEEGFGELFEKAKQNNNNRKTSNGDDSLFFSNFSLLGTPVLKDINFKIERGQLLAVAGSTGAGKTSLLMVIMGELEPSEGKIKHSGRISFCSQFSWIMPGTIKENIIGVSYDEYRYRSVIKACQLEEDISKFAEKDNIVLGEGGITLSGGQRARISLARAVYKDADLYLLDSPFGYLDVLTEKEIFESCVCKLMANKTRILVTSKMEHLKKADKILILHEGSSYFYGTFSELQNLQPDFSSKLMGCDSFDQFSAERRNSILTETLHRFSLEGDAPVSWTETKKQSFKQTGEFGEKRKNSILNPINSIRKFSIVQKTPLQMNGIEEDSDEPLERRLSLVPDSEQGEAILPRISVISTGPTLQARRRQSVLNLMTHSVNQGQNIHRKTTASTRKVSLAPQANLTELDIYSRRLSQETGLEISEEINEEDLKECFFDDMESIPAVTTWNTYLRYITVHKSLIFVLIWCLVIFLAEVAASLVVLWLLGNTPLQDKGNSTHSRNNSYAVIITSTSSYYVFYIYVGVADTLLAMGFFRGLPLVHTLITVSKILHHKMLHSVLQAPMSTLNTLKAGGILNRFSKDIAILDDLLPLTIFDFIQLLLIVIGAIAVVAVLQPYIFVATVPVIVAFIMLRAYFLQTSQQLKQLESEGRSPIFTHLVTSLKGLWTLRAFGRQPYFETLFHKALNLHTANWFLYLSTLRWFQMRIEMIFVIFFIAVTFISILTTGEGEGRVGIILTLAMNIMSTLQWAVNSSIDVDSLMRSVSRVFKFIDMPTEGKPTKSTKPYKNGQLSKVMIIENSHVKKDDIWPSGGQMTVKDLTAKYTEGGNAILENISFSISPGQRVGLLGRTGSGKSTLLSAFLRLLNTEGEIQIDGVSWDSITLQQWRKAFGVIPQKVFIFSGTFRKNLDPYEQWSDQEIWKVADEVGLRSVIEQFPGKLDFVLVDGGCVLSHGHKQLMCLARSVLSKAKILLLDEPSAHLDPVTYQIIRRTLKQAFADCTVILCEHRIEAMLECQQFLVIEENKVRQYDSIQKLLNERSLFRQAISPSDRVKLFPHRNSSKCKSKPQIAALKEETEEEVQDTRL

This experiment concerns the target T1, F508del (Homo sapiens, UniProt P13569, DEL508-508).
T1 construct: expressed in transfected cells
Description: Protocol 1: membrane potential optical assay (FLIPR III, voltage sensing dye), identification of potentiator compounds. In kind it is cell-based. To be noted: Table 3, compounds of Table 1. The essentials:
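NIH 3T3 fibroblasts stably expressing F508del were cultured at 27° C for 24 hrs for temperature correction, then treated with compounds or DMSO and loaded with a voltage-sensing redistribution dye. Forskolin added with a Cl⁻ gradient activated the channel; membrane-potential fluorescence on FLIPR III reported increased gating.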
For `Cc1cc(C)c(Oc2nc(-c3ccc(CN4CCOCC4)cc3)ccc2C(=O)NS(=O)(=O)c2cccc(N)n2)c(C)c1` [Compound 810, N-[(6-amino-2-pyridyl)sulfonyl]-6-[4-(morpholinomethyl)phenyl]-2-(2,4,6-trimethylphenoxy)pyridine-3-carboxamide], the EC30 entry was “++ (“++” means between 3 uM and 10 uM)”.
With `CC(C)COc1cc(F)cc(-c2ccc(C(=O)NS(=O)(=O)c3cccc(N)n3)c(N3CCCC34CC4)n2)c1` [Compound 1333, N-[(6-amino-2-pyridyl)sulfonyl]-2-(7-azaspiro[2.4]heptan-7-yl)-6-(3-fluoro-5-isobutoxy-phenyl)pyridine-3-carboxamide], the EC30 result is “+++ (“+++” means <3 uM)”.
For the compound `CC1CN(c2ncccc2C(=O)NS(=O)(=O)c2cccc(N(C)CCc3ccccc3)n2)C(C)(C)C1` (centres unmarked) [Compound 1978, N—[[6-[methyl(phenethyl)amino]-2-pyridyl]sulfonyl]-2-(2,2,4-trimethylpyrrolidin-1-yl)pyridine-3-carboxamide], the EC30 result is on record as “+++ (“+++” means <3 uM)”.
On to `COc1cccc2c1C(C)(C(=O)NS(=O)(=O)c1cccc(N)n1)N(Cc1c(C)cc(C)cc1C)C2` (centres unmarked) [Compound 1075, N-[(6-amino-2-pyridyl)sulfonyl]-7-methoxy-1-methyl-2-[(2,4,6-trimethylphenyl)methyl]isoindoline-1-carboxamide], for which the EC30 entry is listed as “+++ (“+++” means <3 uM)”.
Take `CCCc1ccc(S(=O)(=O)NC(=O)C2(C)c3cccc(OCC)c3CN2Cc2c(C)cc(C)cc2C)cc1N` (centres unmarked) [Compound 1367, N-(3-amino-4-propyl-phenyl)sulfonyl-4-ethoxy-1-methyl-2-[(2,4,6-trimethylphenyl)methyl]isoindoline-1-carboxamide]: the EC30 entry is recorded as “+++ (“+++” means <3 uM)”.
As to `CC1CN(c2ncccc2C(=O)NS(=O)(=O)c2cccc(OC(C)c3ccccc3)n2)C(C)(C)C1` (centres unmarked) [Compound 1917, N—[[6-(1-phenylethoxy)-2-pyridyl]sulfonyl]-2-(2,2,4-trimethylpyrrolidin-1-yl)pyridine-3-carboxamide], the EC30 result was “+++ (“+++” means <3 uM)”.
For `Cc1cc(C)c(Oc2nc(C3=CCCC4(C3)OCCO4)ccc2C(=O)NS(=O)(=O)c2cccc(N)n2)c(C)c1` [Compound 1437, N-[(6-amino-2-pyridyl)sulfonyl]-6-(1,4-dioxaspiro[4.5]dec-8-en-9-yl)-2-(2,4,6-trimethylphenoxy)pyridine-3-carboxamide], the EC30 entry was “++ (“++” means between 3 uM and 10 uM)”.
For `COc1ncc(Cl)cc1-c1ccc(C(=O)NS(=O)(=O)c2cccc(N)n2)c(Oc2c(C)cc(C)cc2C)n1` [Compound 993, N-[(6-amino-2-pyridyl)sulfonyl]-6-(5-chloro-2-methoxy-3-pyridyl)-2-(2,4,6-trimethylphenoxy)pyridine-3-carboxamide] the value was “+++ (“+++” means <3 uM)”.
As for `CC(C)Oc1ccc(-c2ccc(C(=O)NS(=O)(=O)c3ccn[nH]3)c(N3[C@H](C)CC[C@@H]3C)n2)cn1` [Compound 1074, 2-[(2S,5R)-2,5-dimethylpyrrolidin-1-yl]-6-(6-isopropoxy-3-pyridyl)-N-(1H-pyrazol-5-ylsulfonyl)pyridine-3-carboxamide], the EC30 entry was “++ (“++” means between 3 uM and 10 uM)”.
For the compound `CCOc1ccc(-c2ccc(C(=O)NS(=O)(=O)c3cccc(N)n3)c(Oc3c(C)cc(C)cc3C)n2)cn1` [Compound 1185, N-[(6-amino-2-pyridyl)sulfonyl]-6-(6-ethoxy-3-pyridyl)-2-(2,4,6-trimethylphenoxy)pyridine-3-carboxamide], the EC30 result is “+++ (“+++” means <3 uM)”.
For `CC(C)c1cccc(-c2ccc(C(=O)NS(=O)(=O)c3cccnc3N)c(N3C[C@@H](C)CC3(C)C)n2)c1` [Compound 1991, N-[(2-amino-3-pyridyl)sulfonyl]-6-(3-isopropylphenyl)-2-[(4S)-2,2,4-trimethylpyrrolidin-1-yl]pyridine-3-carboxamide], the EC30 result is given as “+++ (“+++” means <3 uM)”.
In the case of `CC(C)COc1cc(F)cc(-c2ccc(C(=O)NS(=O)(=O)c3cccc(N)n3)c(N3CCC4CC43)n2)c1` (centres unmarked) [Compound 906, N-[(6-amino-2-pyridyl)sulfonyl]-2-(4-azabicyclo[3.1.0]hexan-4-yl)-6-(3-fluoro-5-isobutoxy-phenyl)pyridine-3-carboxamide], the EC30 result is listed as “+++ (“+++” means <3 uM)”.
On to `CC(C)COc1cc(F)cc(-c2ccc(C(=O)NS(=O)(=O)c3cccc(N)n3)c(-n3nc(C(C)C)cc3C(C)C)n2)c1` [Compound 1387, N-[(6-amino-2-pyridyl)sulfonyl]-2-(3,5-diisopropylpyrazol-1-yl)-6-(3-fluoro-5-isobutoxy-phenyl)pyridine-3-carboxamide], for which the EC30 result is “+++ (“+++” means <3 uM)”.
For `CCN(CC)c1nc(-c2ccc(C(=O)NS(=O)(=O)c3cccc(N)n3)c(N3CC(C)CC3(C)C)n2)ccc1C` (centres unmarked) [Compound 1907, N-[(6-amino-2-pyridyl)sulfonyl]-6-[6-(diethylamino)-5-methyl-2-pyridyl]-2-(2,2,4-trimethylpyrrolidin-1-yl)pyridine-3-carboxamide] the value was “+++ (“+++” means <3 uM)”; for `C[C@@H]1CN(c2nc(-c3cccc(C#N)c3)ccc2C(=O)NS(=O)(=O)c2cccnc2N)C(C)(C)C1` [Compound 1824, N-[(2-amino-3-pyridyl)sulfonyl]-6-(3-cyanophenyl)-2-[(4S)-2,2,4-trimethylpyrrolidin-1-yl]pyridine-3-carboxamide], “+++ (“+++” means <3 uM)”; for `CCOc1cccc2c1CN(Cc1c(C)cc(C)cc1C)C2(C)C(=O)NS(=O)(=O)c1cccc(N)c1` (centres unmarked) [Compound 1454, N-(3-aminophenyl)sulfonyl-4-ethoxy-1-methyl-2-[(2,4,6-trimethylphenyl)methyl]isoindoline-1-carboxamide], “+++ (“+++” means <3 uM)”.
For `Cc1c(F)cccc1-c1ccc(C(=O)NS(=O)(=O)c2cccnc2N)c(N2C[C@@H](C)CC2(C)C)n1` [Compound 1944, N-[(2-amino-3-pyridyl)sulfonyl]-6-(3-fluoro-2-methyl-phenyl)-2-[(4S)-2,2,4-trimethylpyrrolidin-1-yl]pyridine-3-carboxamide] the value was “+++ (“+++” means <3 uM)”; for `CNc1cc(S(=O)(=O)NC(=O)c2cc(C(C)(C)C)nn2Cc2c(C)cccc2C)ccn1` [Compound 821, 5-tert-butyl-2-[(2,6-dimethylphenyl)methyl]-N-[[12-(methylamino)-4-pyridyl]sulfonyl]pyrazole-3-carboxamide], “++ (“++” means between 3 uM and 10 uM)”.
For `CC(C)COc1cc(F)cc(-c2ccc(C(=O)NS(=O)(=O)c3cccc(N)n3)c(OCCC3CCC3)n2)c1` [Compound 1418, N-[(6-amino-2-pyridyl)sulfonyl]-2-(2-cyclobutylethoxy)-6-(3-fluoro-5-isobutoxy-phenyl)pyridine-3-carboxamide] the value was “+++ (“+++” means <3 uM)”.
As for `CC(C)COc1cc(F)cc(-c2ccc(C(=O)NS(=O)(=O)c3nc(N)cs3)c(N3CCC(C)(C)CC3)n2)c1` [Compound 1168, N-(4-aminothiazol-2-yl)sulfonyl-2-(4,4-dimethyl-1-piperidyl)-6-(3-fluoro-5-isobutoxy-phenyl)pyridine-3-carboxamide], the EC30 result is listed as “+++ (“+++” means <3 uM)”.
